Assay results taken from US8802638B1, “Flavonoid treatment of glycogen synthase kinase-based disease” (University of South Florida, priority 2007, dated 2014).

What was measured:
PS1 = assay: Western blot of PS1 C-terminal fragment phosphorylation in SweAPP N2a cells; assay type: cell-based, murine
Procedure: (§1) Cultured cells or mouse brain were lysed in ice-cold lysis buffer described above, and an aliquot corresponding to 50 μg of total protein was electrophoretically separated using 12% Tris-HCl or 16.5% Tris-tricine gels. Electrophoresed proteins were then transferred to PVDF membranes, washed in dH2O, and blocked for 1 hr at ambient temperature in Tris-buffered saline (TBS; Bio-Rad) containing 5% (w/v) non-fat dry milk. After blocking, membranes were hybridized for 1 hr at ambient temperature with various primary antibodies. Membranes were then washed 3× for 5 min each in dH2O and incubated for 1 hr at ambient temperature with the appropriate HRP-conjugated secondary antibody (1:1,000). All antibodies were diluted in TBS containing 5% (w/v) of non-fat dry milk. Blots were developed using the luminol reagent (Pierce Biotechnology). Densitometric analysis was done as previously described using a FluorS Multiimager with Quantity One™ software. Immunoprecipitation was performed for detection of sAPP-α, sAPP-β and Aβ by incubating 200 μg of total protein of each sample with various sequential combinations of 6E10 (1:100) and/or 22C11 (1:100) antibodies overnight with gentle rocking at 4° C., and 10 μL of 50% protein A-Sepharose beads were then added to the sample (1:10; Sigma) prior to gentle rocking for an additional 4 hrs at 4° C. Following washes with 1× cell lysis buffer, samples were subjected to Western blot as described above. Antibodies used for Western blot included the APP-carboxyl-terminal antibody (1:50)), amino-terminal APP antibody (clone 22C11), or 6E10 (1:1,000), or actin antibody (1:1,500; as an internal reference control). γ-secretase activity was quantified in cell lysates using available kits (R&D Systems, Minneapolis, Minn.), based on secretase-specific peptides conjugated to fluorogenic reporter molecules.
The two bands of highest molecular weight, approximately 20 kD and 18 kD in size, represent phosphorylated PS1 CTFs with a smaller 16 kD band representing the more common CTF product indicative of PS1 endoproteolytic cleavage.
To confirm that the 20 kD and 18 kD bands were phosphorylated PS1 isoforms, SweAPP N2a cells were treated with luteolin (20 μM) prior to lysis and cell lysates incubated with calf intestine alkaline phosphatase (CIAP) (Fermentas, Hanover, Md.), to dephosphorylate any potential phosphorylated proteins, to eliminate skewing of electrophorectic mobilities. Following 30 minutes of incubation, the 20 kD band is not evident in the CIAP treated lysates, seen in FIGS. 21(A) through 22, and the 18 kD band reduced while endogenous CTF, 16 kD, appears to accumulate. When compared to lysates incubated with only reaction buffer, phosphorylated residues decrease in a time dependent manner, shown by the 20 kD CTF:16 kD CTF. […] Luteolin affects PS1 phosphorylation and may indicate a means by which γ-secretase activity may be regulated.
To determine if this phenomenon was specifically attributable to luteolin treatment or more generally in regards to GSK-3 inhibition, SweAPP N2a cells were treated with a range of doses of the GSK-3 inhibitor SB-415286 (BIOMOL®, Plymouth Meeting, Pa.). […] FIG. 24(B). GSK-3α and β was successfully knocked-down (>70%, data not shown) with siRNA in SweAPP N2a cells, substantiating the role of GSK-3α in this luteolin-mediated PS1 processing. […]

GSK-3α/β = assay: Western blot of phosphorylated GSK-3α/β forms in SweAPP N2a cells; assay type: cell-based, murine; conditions: SweAPP N2a cells co-treated with luteolin or SB-415286 and GF109203X; data not shown
Procedure: (§2) Cultured cells or mouse brain were lysed in ice-cold lysis buffer described above, and an aliquot corresponding to 50 μg of total protein was electrophoretically separated using 12% Tris-HCl or 16.5% Tris-tricine gels. Electrophoresed proteins were then transferred to PVDF membranes, washed in dH2O, and blocked for 1 hr at ambient temperature in Tris-buffered saline (TBS; Bio-Rad) containing 5% (w/v) non-fat dry milk. After blocking, membranes were hybridized for 1 hr at ambient temperature with various primary antibodies. Membranes were then washed 3× for 5 min each in dH2O and incubated for 1 hr at ambient temperature with the appropriate HRP-conjugated secondary antibody (1:1,000). Antibodies were obtained against the amino-terminus and carboxyl-terminus of PS1 (Chemicon, Temecula, Calif.), amino-terminus and carboxyl-terminus of APP (22C11), actin (Roche, Basel, Switzerland), Aβ (6E10, 48G) (Signet Laboratories, Dedham, Mass.), phosphor-GSK3α (ser^21, clone BK202) (Upstate, Lake Placid, N.Y.), phospho-GSK3α/β (pTyr^279/216) (Sigma), phospho-GSK-3β (Ser^9) (Sigma) and total GSK-3α/β (Sigma). All antibodies were diluted in TBS containing 5% (w/v) of non-fat dry milk. Blots were developed using the luminol reagent (Pierce Biotechnology). Densitometric analysis was done as previously described using a FluorS Multiimager with Quantity One™ software (39). […] Antibodies used for Western blot included the APP-carboxyl-terminal antibody (1:50)), amino-terminal APP antibody (clone 22C11), or 6E10 (1:1,000), or actin antibody (1:1,500; as an internal reference control). γ-secretase activity was quantified in cell lysates using available kits based on secretase-specific peptides conjugated to fluorogenic reporter molecules.
The effect luteolin had on a variety of proteins related to and/or required for proper functioning of the γ-secretase complex was evaluated to establish the mechanism whereby luteolin modulates γ-secretase activity and subsequent Aβ generation. […]

PS1-APP association = assay: PS1-APP association, immunoprecipitation/Western blot in SweAPP N2a cells; assay type: cell-based, murine; conditions: 20 μM for 4 hrs or siRNA transfection
Procedure: as §1
Cell lysates of luteolin-treated SweAPP N2a cells were immunoprecipitated by PS1 antibody and probed for APP to clarify how phospho-PS1 CTF isoforms may regulate γ-secretase activity, seen in FIGS. 26(A) through 27(B). As illustrated in FIGS. 26(A) and (B), the APP-PS1 association is disrupted by luteolin, SB-415286 treatment, and GSK-3α siRNA. […] Thus, GSK-3α or, more specifically, downstream phosphorylation of the PS1 CTF plays an essential role in regulating the association of γ-secretase complex with its APP substrate.

TACE, ADAM10, sAPPα = assay: non-amyloidogenic APP processing (TACE, ADAM10 maturation, sAPPα release); assay type: cell-based; conditions: data not shown
Excerpt: The presence of phosphorylated PS1 CTFs corresponds with reduction of Aβ generation and accumulation of the β-CTF of APP, as was observed following luteolin treatment. The accumulation β-CTFs following luteolin treatment is a fraction of β-CTF seen after direct γ-secretase inhibitor treatment (data not shown). In view of this finding, selective GSK-3 inactivation is a less toxic, more regulative, substrate-specific mode of γ-secretase inhibition. Earlier studies routinely employed phorbol-12,13-dibutyrate (PDBu), a potent PKC activator, as their phosphorylating agent. Thus, luteolin was tested for similar PKC activation, rather than a GSK-3 inhibitor. […] Additionally, there are no indications GSK-3α inhibition affects non-amyloidogenic processing of APP, since luteolin, SB-415286, and GSK-3α RNAi treatment have no effect on the maturation of TACE, ADAM10, or sAPPα release (data not shown), which are all strongly associated with PKC activation.

SweAPP N2a cells = assay: APP proteolysis (Aβ ELISA, IP, APP CTF Western blot) in SweAPP N2a cells; assay type: cell-based, murine; conditions: result in words; ELISA/IP/Western blot
Procedure: Cultured cells or mouse brain were lysed in ice-cold lysis buffer described above, and an aliquot corresponding to 50 μg of total protein was electrophoretically separated using 12% Tris-HCl or 16.5% Tris-tricine gels. Electrophoresed proteins were then transferred to PVDF membranes, washed in dH2O, and blocked for 1 hr at ambient temperature in Tris-buffered saline (TBS; Bio-Rad) containing 5% (w/v) non-fat dry milk. After blocking, membranes were hybridized for 1 hr at ambient temperature with various primary antibodies. Membranes were then washed 3× for 5 min each in dH2O and incubated for 1 hr at ambient temperature with the appropriate HRP-conjugated secondary antibody (1:1,000). Antibodies were obtained against the amino-terminus and carboxyl-terminus of PS1 (Chemicon, Temecula, Calif.), amino-terminus and carboxyl-terminus of APP (22C11), actin (Roche, Basel, Switzerland), Aβ (6E10, 48G) (Signet Laboratories, Dedham, Mass.), phosphor-GSK3α (ser^21, clone BK202) (Upstate, Lake Placid, N.Y.), phospho-GSK3α/β (pTyr^279/216) (Sigma), phospho-GSK-3β (Ser^9) (Sigma) and total GSK-3α/β (Sigma). All antibodies were diluted in TBS containing 5% (w/v) of non-fat dry milk. Blots were developed using the luminol reagent (Pierce Biotechnology). Densitometric analysis was done as previously described using a FluorS Multiimager with Quantity One™ software (39). Immunoprecipitation was performed for detection of sAPP-α, sAPP-β and Aβ by incubating 200 μg of total protein of each sample with various sequential combinations of 6E10 (1:100) and/or 22C11 (1:100) antibodies overnight with gentle rocking at 4° C., and 10 μL of 50% protein A-Sepharose beads were then added to the sample (1:10; Sigma) prior to gentle rocking for an additional 4 hrs at 4° C. Following washes with 1× cell lysis buffer, samples were subjected to Western blot as described above. Antibodies used for Western blot included the APP-carboxyl-terminal antibody (1:50)), amino-terminal APP antibody (clone 22C11), or 6E10 (1:1,000), or actin antibody (1:1,500; as an internal reference control). γ-secretase activity was quantified in cell lysates using available kits based on secretase-specific peptides conjugated to fluorogenic reporter molecules.
SweAPP N2a cells and primary neuronal cells derived from Tg2576 mice were treated with varying doses of luteolin to examine luteolin's effect on APP proteolysis. Cellular extracts were collected and analyzed using immunoprecipitation (IP), Western blot, and ELISA. […] See FIGS. 1 through 2(B) and 5 through 6(B). SweAPP N2a and primary Tg2576-derived neuronal cells CTF profiles were analyzed following luteolin treatment to determine at which level luteolin impacts amyloid processing.

γ-secretase = molecular target: T1, γ-secretase (Mus musculus, UniProt P49769); assay: fluorometric assay for γ-secretase cleavage activity in SweAPP N2a cell lysates; assay type: cell-based, murine; conditions: relative to untreated control
T1 construct: endogenous in cells; host or cells: SweAPP N2a cells (lysates of treated cells)
Procedure: as §2, with “All antibodies were diluted in TBS containing 5% (w/v) of non-fat dry milk. Blots were developed using the luminol reagent (Pierce Biotechnology).” left out
Due to the implications on γ-secretase activity, luteolin's effect on SweAPP N2a cells was analyzed using a fluorometric assay for γ-cleavage.
Cultured cells or mouse brain were lysed in ice-cold lysis buffer described above, and an aliquot corresponding to 50 μg of total protein was electrophoretically separated using 12% Tris-HCl or 16.5% Tris-tricine gels. […] Densitometric analysis was done as previously described using a FluorS Multiimager with Quantity One™ software. […]

[1] = diosmetin formed from diosmin by intestinal flora; cited from earlier work
Tg2576 mice = conditions: 0.05% diosmin diet for 6 months

Row | Compound | PS1 CTF phosphorylation (phospho-PS1 CTF to PS1 CTF ratio) (PS1) | Aβ1-40, 42 production (SweAPP N2a cells) | γ-secretase cleavage activity (γ-secretase) | further results
1 | CN(C)CCCn1cc(C2=C(c3c[nH]c4ccccc34)C(=O)NC2=O)c2ccccc21 [GF109203X, reference compound] | Minor decreases in 20 kD and 18 kD phospho-PS1 CTF isoforms |  |  | GSK-3 inhibition on co-treatment with PKC inhibitor (GSK-3α/β): no effect on GSK-3 inhibition
2 | O=C1NC(=O)C(c2ccccc2[N+](=O)[O-])=C1Nc1ccc(O)c(Cl)c1 [SB-415286, reference compound] | Alterations in phospho-PS1 CTF:PS1 CTF ratios were similar to prior experiments | congruent decreases in Aβ1-40, 42 generation |  | ratio of APP to actin (full-length APP levels) (PS1-APP association; 6E10 Western blot of lysates): no significant changes; APP-PS1 association (PS1-APP association; IP with anti-PS1 CTF, 6E10 blot): disrupted; maturation of TACE, ADAM10, or sAPPα release (TACE, ADAM10, sAPPα): no effect
3 | O=c1cc(-c2ccc(O)cc2)oc2cc(O)cc(O)c12 [apigenin, reference compound] |  | did not reduce Aβ1-40, 42 production to the same level as luteolin, diosmetin, and diosmin | results were not similar to luteolin | 
4 | COc1ccc(-c2cc(=O)c3c(O)cc(O)cc3o2)cc1O [diosmetin] | just as efficacious as luteolin |  | just as efficacious as luteolin | plasma half-life [1]: > 26 h
5 | COc1ccc(-c2cc(=O)c3c(O)cc(O[C@@H]4O[C@H](CO[C@@H]5O[C@@H](C)[C@H](O)[C@@H](O)[C@H]5O)[C@@H](O)[C@H](O)[C@H]4O)cc3o2)cc1O [diosmin] |  |  |  | Aβ plaque burden (4G8 stained sections, image analysis) (Tg2576 mice): significantly reduced throughout the brain
